Reference: US20080039461A1, “Treatment of pain by inhibition of p38 map kinase” (priority 2002, published 2008)
Where two headings read alike, the source gives them in different places.

Experiments:
[1] = molecular target: T1, p38 MAPK (Homo sapiens, UniProt Q16539); assay: p38 MAPK phosphorylation assay (similar to Kumar); assay type: biochemical
T1 construct: expressed in transfected cells; host or cells: HeLa (kinase immunoprecipitated from lysates of transfected, stimulated cells)
Procedure: Alternative assays involving in vitro analysis of potential inhibitors include those where cells (HeLa) transfected with DNA coding for relevant kinases can be activated with substances such as sorbitol, IL-1, TNF, or PMA (phorbol myristate acetate). After immunoprecipitation of cell lysates, equal aliquots of immune complexes of the kinases are pre-incubated for an adequate time with a specific concentration of the potential inhibitor followed by addition of kinase substrate buffer mix containing labeled ATP and GST-ATF2 or MBP. After incubation, kinase reactions are ceased by the addition of SDS loading buffer. Phosphorylated substrate is resolved through SDS-PAGE and visualized and quantitated in a phosphorimager. Both p38 regulation, in terms of phosphorylation, and IC50 values can be determined by quantitation. […] Res. Commun. […]

[2] = tested on: post-activity related discomfort; assay: pain associated with athletic endeavor; assay type: in vivo; details: before a long distance race; SH 50 mg/kg, SI 20 mg/kg, SM 40 mg/kg
Procedure: A subject preparing for an athletic endeavor, the running of a long distance race, is administered approximately 50 mg/kg of SH approximately 30 minutes before the endeavor is to begin. No other analgesics or anesthetics are administered. The athlete participates in and completes the endeavor.
A subject preparing for an athletic endeavor, the running of a long distance race, is administered approximately 20 mg/kg of SI approximately 1 hours before the endeavor is to begin. No other analgesics or anesthetics are administered. The athlete participates in and completes the endeavor.
A subject preparing for an athletic endeavor, the running of a long distance race, is administered approximately 40 mg/kg of SM approximately 1 hours before the endeavor is to begin. No other analgesics or anesthetics are administered. The athlete participates in and completes the endeavor.

[3] = tested on: discomfort of a dental procedure; assay: pain associated with a dental procedure; assay type: in vivo; details: approximately 1 hours before the procedure; SF 40 mg/kg, SG 20 mg/kg
Procedure: A subject scheduled for a dental procedure, the filling of a cavity in a tooth, is administered approximately 40 mg/kg of the p38 MAP kinase inhibitor SF approximately 1 hours before the procedure is to begin. No other analgesics or anesthetics are administered.
A subject scheduled for a dental procedure, the filling of a cavity in a tooth, is administered approximately 20 mg/kg of the p38 MAP kinase inhibitor SG approximately 1 hours before the procedure is to begin. No other analgesics or anesthetics are administered.

[4] = tested on: NMDA-induced hyperalgesia; assay: hyperalgesia induced by intrathecal NMDA; assay type: in vivo, rat; details: IT NMDA 0.3 μg; MK801 10 μg, IT SD 3-60 μg, IT SB 1-30 μg, SA 10 μg
From the text: Male Sprague-Dawley rats (300-350 g) were implanted under isoflurane anesthesia with lumbar polyethylene (PE-10) catheters according to a modified method originally described in Physiol. Behav. 17, 1031 (1976). […] IT saline and 5% DMSO alone had no effect on behavior or protein expression/phosphorylation.

[5] = tested on: recovery from the procedure; assay: adjunct to opioid anesthesia for Cesarean section; assay type: in vivo; details: in opioid solution, subarachnoid; SL 60 mg/kg, SJ 630 mg/kg, SK 50 mg/kg
Procedure: A person scheduled for a Cesarean section is prepared according to standard guidelines. A subarachnoid block is performed in the sitting position, following the administration of 1-2 liters of crystalloid solution. Skin infiltration with local anaesthetic is performed at the L2-3 or L3-L4 interspace. A spinal needle introducer is used to facilitate insertion of the needle into the patient. The needle is introduced into the epidural space and perforates the dura. The emergence of cerebrospinal fluid indicates proper placement of the needle. An opiod solution containing approximately 60 mg/kg of SL is administered and injected slowly of a ten to fifteen second time interval. […] The needle is then removed and resulting wound is dressed. The Cesarean section proceeds according to a standard protocol.
A person scheduled for a Cesarean section is prepared according to standard guidelines. A subarachnoid block is performed in the sitting position, following the administration of 1-2 liters of crystalloid solution. Skin infiltration with local anaesthetic is performed at the L2-3 or L3-L4 interspace. A spinal needle introducer is used to facilitate insertion of the needle into the patient. The needle is introduced into the epidural space and perforates the dura. The emergence of cerebrospinal fluid indicates proper placement of the needle. An opiod solution containing approximately 630 mg/kg of SJ is administered and injected slowly of a ten to fifteen second time interval. […] The needle is then removed and resulting wound is dressed. The Cesarean section proceeds according to a standard protocol.
A person scheduled for a Cesarean section is prepared according to standard guidelines. A subarachnoid block is performed in the sitting position, following the administration of 1-2 liters of crystalloid solution. Skin infiltration with local anaesthetic is performed at the L2-3 or L3-L4 interspace. A spinal needle introducer is used to facilitate insertion of the needle into the patient. The needle is introduced into the epidural space and perforates the dura. […]

[6] = tested on: carrageenan-induced thermal hyperalgesia; assay: carrageenan-induced thermal hyperalgesia (Hargreaves-type device); assay type: in vivo, rat; details: intravenous administration, pre injury
Procedure: Hyperalgesia was induced in the rat's right hindpaw by intraplantar injection of carrageenan (2 mg in 0.1 ml of a […] solution (weight/volume) in physiological saline). To assess the thermally evoked paw withdrawal time, a device modeled after that described by Hargreaves (1988) was used. See Hargreaves K, Dubner R, Brown F, Flores C, Joris J. A new and sensitive method for measuring thermal nociception in cutaneous hyperalgesia, Pain, 32, 77-88 (1988). The device consisted of a glass surface on top of which the rats were placed. The glass surface was heated by a focused projection bulb below the glass surface. The first sign of discomfort is usually expressed as an attempt to sit up and lick the forepaws by the experimental animal. This response indicates a threshold of pain under the predetermined conditions. Dancing and jumping about by an undrugged animal is an indicator of unbearable pain; whereas drugged animals more commonly withdraw the hind paws and keep them close to their abdomen. A timer was actuated with the light source and latency defined as the time required for the paw to be withdrawn from the glass surface. See Dirig D M, Isakson P C, and Yaksh T L. J Pharmacol Exp Ther., 285, 1031-8 (1998).

[7] = tested on: mechanical hyperalgesia; assay: mechanical hyperalgesia, Randall Selitto test, intraplantar carrageenan; assay type: in vivo, Sprague Dawley Rats
Procedure: The effects of p38 MAP kinase inhibitors on Mechanical and Thermal Hyperalgesia were evaluated as follows. Sprague Dawley Rats were evaluated in carageenan induced models whereby an intraplantar injection of carageenan was made into the left paw. At approximately 2 and 4 hour post carageenan, the left hind limb of each rat was assessed for the development of thermal hyperalgesia relative to a p38 MAP kinase inhibitor (SC), vehicle, indomethacin, and the vehicle for indomethacin. Indomethacin, a known nonsteroidal analgesic, was used as a control reference in this study. Assessment of mechanical and thermal hyperalgesia was accomplished through the use of a Randall Selitto Analgesiometer and the Hargreaves Plantar Device, respectively. Approximately 10 minutes after intraperitoneal dosing, or 30 minutes following oral indomethacin treatment, each animal was lightly anaesthetized (isoflurane in oxygen) and an intraplantar injection of carageenan was made into the left paw. Animals were allowed to recover from anesthesia. Mechanical hyperalgesia was tested using the Randall-Selittlo test. Randall, L. & Selitto, J., Arch Int Pharmacodyn (1957) 110:409-419. The carageenan model was established as set forth above. […] In the same animals treated with SC, the paw withdrawal threshold increased from a pre dose threshold of 159±8 g to 177±17 g, 2 hours post-carrageenan. […] As set forth in Example 2 above, Sprague Dawley rats were evaluated in the intraplantar carageenan model. The animals were administered the p38 MAP kinase inhibitor SA, vehicle, indomethacin, and the vehicle for indomethacin. After dosing, the animals were assessed for the development of mechanical hyperalgesia and thermal hyperalgesia using the Randall Selitto Analgesiometer and the Hargreaves Plantar Device, respectively.

[8] = tested on: thermal hyperalgesia; assay: thermal hyperalgesia, Plantar test (Hargreaves), intraplantar carrageenan; assay type: in vivo, Sprague Dawley Rats
Procedure: The effects of p38 MAP kinase inhibitors on Mechanical and Thermal Hyperalgesia were evaluated as follows. Sprague Dawley Rats were evaluated in carageenan induced models whereby an intraplantar injection of carageenan was made into the left paw. At approximately 2 and 4 hour post carageenan, the left hind limb of each rat was assessed for the development of thermal hyperalgesia relative to a p38 MAP kinase inhibitor (SC), vehicle, indomethacin, and the vehicle for indomethacin. Indomethacin, a known nonsteroidal analgesic, was used as a control reference in this study. Assessment of mechanical and thermal hyperalgesia was accomplished through the use of a Randall Selitto Analgesiometer and the Hargreaves Plantar Device, respectively. Approximately 10 minutes after intraperitoneal dosing, or 30 minutes following oral indomethacin treatment, each animal was lightly anaesthetized (isoflurane in oxygen) and an intraplantar injection of carageenan was made into the left paw. Animals were allowed to recover from anesthesia. As set forth above in the carageenan model, the effect of SC was evaluated with respect to attenuation of the development of thermal hyperalgesia at either of the 2 and 4 hours post-carrageenan time points tested. As above with respect to mechanical hyperalgesia, observation of statistically significant thermal hyperalgesia development was made at both the 2 and 4 hour periods (8.2±1.5 s; P≦0.05 and 7.0±1.5 s; P≦0.01, respectively), compared to vehicle pre dose measurements (12.7±1.0 s). […] As set forth in Example 2 above, Sprague Dawley rats were evaluated in the intraplantar carageenan model. The animals were administered the p38 MAP kinase inhibitor SA, vehicle, indomethacin, and the vehicle for indomethacin. After dosing, the animals were assessed for the development of mechanical hyperalgesia and thermal hyperalgesia using the Randall Selitto Analgesiometer and the Hargreaves Plantar Device, respectively.

[9] = assay similar to the phosphorylation assay (Kumar), read-out: p38 MAPK activity, relative IC50 value

T1 sequence (Q16539 whole entry): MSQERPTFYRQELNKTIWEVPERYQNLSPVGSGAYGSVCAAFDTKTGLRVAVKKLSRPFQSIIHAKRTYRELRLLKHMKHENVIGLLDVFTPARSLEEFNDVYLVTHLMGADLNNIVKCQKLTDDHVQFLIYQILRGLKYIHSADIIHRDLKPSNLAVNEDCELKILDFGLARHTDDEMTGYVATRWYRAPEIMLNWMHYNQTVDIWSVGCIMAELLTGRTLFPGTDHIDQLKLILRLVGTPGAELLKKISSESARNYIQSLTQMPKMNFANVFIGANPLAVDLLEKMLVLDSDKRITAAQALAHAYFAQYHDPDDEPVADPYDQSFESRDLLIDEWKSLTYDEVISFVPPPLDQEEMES

With `COCn1cc(C(=O)C(=O)N(C)C)c2cc(C(=O)N3C[C@H](C)N(Cc4ccc(F)cc4)C[C@H]3C)c(OC)cc21` [SI] as the molecule, how does the IC50 [1] read?
Its IC50 is under 5 nM.

What about the post-activity related discomfort [2] of the same molecule?
The post-activity related discomfort was “reduced level of post-activity related discomfort”.

For `Cn1cc(C(=O)C(=O)N2CCCC2)c2cc(C(=O)N3CCC(Cc4ccc(F)cc4)CC3)c(Cl)cc21` [SH], which IC50 [1, 9] is on record?
The IC50 was under 5 nM.

What about the post-activity related discomfort [2] of the same molecule?
Its post-activity related discomfort is “reduced level of post-activity related discomfort”.

Which results are given for `COc1cc2c(cc1C(=O)N1CCC(Cc3ccc(F)cc3)CC1)c(C(=O)C(=O)N1CCN(C)CC1)cn2C` [SG]?
IC50 [1, 9]: < 5 nM; discomfort during dental procedure [3]: reduced level of discomfort

How did the “hyperalgesia induced by IT NMDA” value [4] turn out when `C[C@]12N[C@H](Cc3ccccc31)c1ccccc12` [MK801] was run?
The value was “reversed”.

What does the source list for `COc1cc2c(cc1C(=O)N1CCC(=Cc3ccc(F)cc3)CC1)c(C(=O)C(=O)N(C)C)cn2C` [SM]?
IC50 [1, 9]: < 5 nM; post-activity related discomfort [2]: reduced level of post-activity related discomfort

What does the source list for `Cc1[nH]c2cc(Cl)c(C(=O)N3CCC(Cc4ccc(F)cc4)CC3)cc2c1C(=O)C(=O)N1CCN(C)CC1` [SL]?
IC50 [1, 9]: < 5 nM; recovery after Cesarean section [5]: recovers more rapidly from the procedure

Which IC50 [1, 9] does the source give for `COc1cc2[nH]cc(C(=O)C(=O)N(C)C)c2cc1C(=O)N1CC(C)N(Cc2ccc(F)cc2)CC1C` (stereo not drawn) [SE] here?
Its IC50 is under 5 nM.

What about the carageenan induced hyperalgesia [6] of the same molecule?
Its carageenan induced hyperalgesia is “Attenuation of the carageenan induced hyperalgesia”.

What does the source list for `COc1ccc2c(c1)c(CC(=O)O)c(C)n2C(=O)c1ccc(Cl)cc1` [indomethacin, reference compound]?
paw withdrawal threshold ([7]; Example 2, oral 10 mg/kg, 2 hours): 180 ± 21 g; paw withdrawal threshold ([7]; Example 2, oral 10 mg/kg, 4 hours): 188 ± 17 g; paw withdrawal threshold ([7]; Example 3, oral 10 mg/kg, 4 hours): 177 ± 16 g; increase of withdrawal latency ([8]; Example 2, 10 mg/kg p.o., 2 hours post-carrageenan): not significant; withdrawal latency ([8]; Example 2, 10 mg/kg p.o., 4 hours): 12.5 ± 1.4 s; withdrawal latency ([8]; Example 3, 10 mg/kg p.o., 2 hours): 13.1 ± 0.9 s; withdrawal latency ([8]; Example 3, 10 mg/kg p.o., 4 hours): 9.3 ± 1.3 s

Which paw withdrawal threshold ([7]; Example 2, SC intraperitoneal, 2 hours post-carrageenan) does the source give for `C[C@@H]1CN(Cc2ccc(F)cc2)[C@@H](C)CN1C(=O)c1cc2c(C(=O)C(=O)N(C)C)cn(C)c2cc1Cl` [SC] here?
Its paw withdrawal threshold is 177 ± 17 g.

And the paw withdrawal threshold ([7]; Example 2, SC intraperitoneal, 4 hour post-carrageenan)?
Its paw withdrawal threshold is 153 ± 14 g.

And the withdrawal latency ([8]; Example 2, first of two dose levels (not given), 2 hours)?
Its withdrawal latency is 11.5 ± 1.1 s.

What about the withdrawal latency ([8]; Example 2, first of two dose levels (not given), 4 hours) of the same molecule?
Its withdrawal latency is 10.2 ± 1.5 s.

What about the withdrawal latency ([8]; Example 2, second of two dose levels (not given), 2 hours) of the same molecule?
The withdrawal latency was 11.6 ± 1.1 s.

And the withdrawal latency ([8]; Example 2, second of two dose levels (not given), 4 hours)?
Its withdrawal latency is 10.2 ± 0.9 s.

What does the source list for `C[C@@H]1CN(Cc2ccc(F)cc2)[C@@H](C)CN1C(=O)c1cc2c(C(=O)C(=O)N3CCOCC3)cn(C)c2cc1Cl` [SJ]?
IC50 [1, 9]: < 5 nM; recovery after Cesarean section [5]: recovers more rapidly from the procedure

`COc1cc2c(cc1C(=O)N1CCC(Cc3ccc(F)cc3)CC1)c(C(=O)C(=O)O)cn2C` [SF] was tested. Which IC50 [1, 9] did it give?
Its IC50 is under 5 nM.

What about the “discomfort during dental procedure” value [3] of the same molecule?
The value was “reduced level of discomfort”.

Which results are given for `COc1cc2c(cc1C(=O)N1CC(C)C(Cc3ccc(F)cc3)CC1C)c(C(=O)C(=O)N(C)C)cn2C` (stereo not drawn) [SA]?
IC50 [1, 9]: < 5 nM; paw withdrawal threshold ([7]; Example 3, oral, 30 minutes prior to carrageenan, 4 hours): 159 ± 19 g; attenuation of thermal hyperalgesia ([8]; Example 3, oral, lower dose levels): no significant attenuation; withdrawal latency ([8]; Example 3, oral, 4 hours): 11.1 ± 1.4 s

With `COc1cc2[nH]cc(C(=O)C(=O)N3CCOCC3)c2cc1C(=O)N1CCC(Cc2ccc(F)cc2)CC1` [SK] as the molecule, how does the IC50 [1, 9] read?
The IC50 was under 5 nM.

What about the “recovery after Cesarean section” value [5] of the same molecule?
The value was “recovers more rapidly from the procedure”.
